Laboratory results taken from the supplement of paper PMC12076712.
± gives the standard deviation of the averaged measurements.

How the values were obtained:
Assay in all cases: pIC50, kinobeads binding competition
Settings in all cases: cell material: Jurkat lysate
[1] = target: STK35 (UniProt Q8TDR2)
[2] = target: UniProt Q14004
[3] = target: UniProt Q15208
[4] = target: UniProt Q9HCP0
[5] = target: CSK (UniProt P41240)
[6] = target: T1, ULK1 (UniProt O75385)
T1 sequence (whole entry): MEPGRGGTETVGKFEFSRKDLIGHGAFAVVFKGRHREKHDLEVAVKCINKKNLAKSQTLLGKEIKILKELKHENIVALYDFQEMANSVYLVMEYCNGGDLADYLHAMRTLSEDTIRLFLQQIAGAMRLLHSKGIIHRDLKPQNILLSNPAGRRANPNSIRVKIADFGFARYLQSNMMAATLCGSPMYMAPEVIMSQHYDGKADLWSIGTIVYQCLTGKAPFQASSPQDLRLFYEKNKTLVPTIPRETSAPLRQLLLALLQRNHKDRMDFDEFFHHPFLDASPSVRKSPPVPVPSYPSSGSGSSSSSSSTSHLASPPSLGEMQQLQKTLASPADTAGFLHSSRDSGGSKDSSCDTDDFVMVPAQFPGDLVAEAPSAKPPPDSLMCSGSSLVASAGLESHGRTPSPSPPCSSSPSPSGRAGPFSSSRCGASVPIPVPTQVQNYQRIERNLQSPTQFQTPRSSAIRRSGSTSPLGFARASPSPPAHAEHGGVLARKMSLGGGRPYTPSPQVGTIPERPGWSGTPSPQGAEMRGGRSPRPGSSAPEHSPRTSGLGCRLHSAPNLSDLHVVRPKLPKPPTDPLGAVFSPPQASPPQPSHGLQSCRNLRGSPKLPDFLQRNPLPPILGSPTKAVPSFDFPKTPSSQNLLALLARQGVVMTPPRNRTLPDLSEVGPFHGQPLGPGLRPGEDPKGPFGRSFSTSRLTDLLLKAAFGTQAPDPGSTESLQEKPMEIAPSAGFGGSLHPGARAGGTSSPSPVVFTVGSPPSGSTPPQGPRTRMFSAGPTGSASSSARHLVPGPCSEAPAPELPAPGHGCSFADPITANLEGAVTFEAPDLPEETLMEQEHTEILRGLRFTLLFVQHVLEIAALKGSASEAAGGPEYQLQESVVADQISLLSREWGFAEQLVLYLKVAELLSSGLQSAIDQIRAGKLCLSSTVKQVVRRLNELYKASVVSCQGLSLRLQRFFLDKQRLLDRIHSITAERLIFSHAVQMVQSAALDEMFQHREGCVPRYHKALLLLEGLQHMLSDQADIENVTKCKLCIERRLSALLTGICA

[7] = target: T2, TTK (UniProt P33981)
T2 sequence (whole entry): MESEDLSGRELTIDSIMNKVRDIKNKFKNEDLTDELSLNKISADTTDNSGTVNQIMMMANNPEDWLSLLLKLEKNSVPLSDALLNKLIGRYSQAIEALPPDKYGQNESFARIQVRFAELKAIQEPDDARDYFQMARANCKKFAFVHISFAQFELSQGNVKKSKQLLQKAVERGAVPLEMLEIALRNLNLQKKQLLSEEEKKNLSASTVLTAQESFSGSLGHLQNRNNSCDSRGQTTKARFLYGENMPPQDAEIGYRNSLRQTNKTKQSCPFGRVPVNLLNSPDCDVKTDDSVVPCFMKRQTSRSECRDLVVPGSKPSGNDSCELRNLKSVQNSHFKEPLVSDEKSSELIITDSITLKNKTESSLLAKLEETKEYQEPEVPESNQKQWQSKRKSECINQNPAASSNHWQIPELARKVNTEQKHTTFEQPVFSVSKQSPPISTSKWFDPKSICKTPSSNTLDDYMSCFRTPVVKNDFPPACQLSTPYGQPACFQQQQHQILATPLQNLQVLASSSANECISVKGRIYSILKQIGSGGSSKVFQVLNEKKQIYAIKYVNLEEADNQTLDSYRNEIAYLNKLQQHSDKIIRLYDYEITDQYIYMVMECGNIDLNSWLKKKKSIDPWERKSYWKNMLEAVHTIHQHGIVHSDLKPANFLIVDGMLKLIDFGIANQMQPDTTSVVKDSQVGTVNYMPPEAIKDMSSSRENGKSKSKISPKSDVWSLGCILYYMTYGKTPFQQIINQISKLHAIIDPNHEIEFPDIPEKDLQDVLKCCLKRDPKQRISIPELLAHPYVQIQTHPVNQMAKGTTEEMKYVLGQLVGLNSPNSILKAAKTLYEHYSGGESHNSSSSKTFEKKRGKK

[8] = target: T3, UniProt Q9Y2U5
T3 sequence (whole entry): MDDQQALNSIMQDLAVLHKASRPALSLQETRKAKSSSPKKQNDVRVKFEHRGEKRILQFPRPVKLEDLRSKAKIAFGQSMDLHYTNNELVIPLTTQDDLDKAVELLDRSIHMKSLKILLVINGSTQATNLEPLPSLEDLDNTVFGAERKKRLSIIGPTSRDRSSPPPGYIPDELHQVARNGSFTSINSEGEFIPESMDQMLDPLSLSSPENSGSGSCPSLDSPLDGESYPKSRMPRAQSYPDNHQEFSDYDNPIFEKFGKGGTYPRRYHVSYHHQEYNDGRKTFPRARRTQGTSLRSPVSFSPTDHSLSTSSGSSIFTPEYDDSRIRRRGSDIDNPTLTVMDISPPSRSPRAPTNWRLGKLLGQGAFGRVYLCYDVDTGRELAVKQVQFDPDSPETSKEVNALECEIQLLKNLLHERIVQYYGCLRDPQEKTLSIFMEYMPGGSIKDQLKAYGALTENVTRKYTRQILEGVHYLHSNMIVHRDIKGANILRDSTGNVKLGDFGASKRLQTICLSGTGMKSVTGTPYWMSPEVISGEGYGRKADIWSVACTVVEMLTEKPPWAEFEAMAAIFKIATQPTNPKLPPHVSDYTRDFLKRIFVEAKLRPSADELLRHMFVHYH

Sequence of UniProt Q9HCP0 (Q9HCP0 whole entry, looked up): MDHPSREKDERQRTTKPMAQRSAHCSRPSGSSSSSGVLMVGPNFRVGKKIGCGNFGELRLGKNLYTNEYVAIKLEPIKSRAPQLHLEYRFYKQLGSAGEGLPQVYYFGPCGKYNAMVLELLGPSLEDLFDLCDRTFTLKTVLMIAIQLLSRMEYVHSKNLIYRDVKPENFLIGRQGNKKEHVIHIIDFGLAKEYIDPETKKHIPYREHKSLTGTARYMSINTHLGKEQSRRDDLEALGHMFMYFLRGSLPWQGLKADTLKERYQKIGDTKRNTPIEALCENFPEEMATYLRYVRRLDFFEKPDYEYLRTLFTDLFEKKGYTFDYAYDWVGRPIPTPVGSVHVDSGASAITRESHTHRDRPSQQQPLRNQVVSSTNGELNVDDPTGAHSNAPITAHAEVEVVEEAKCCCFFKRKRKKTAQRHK
Sequence of STK35 (Q8TDR2 whole entry): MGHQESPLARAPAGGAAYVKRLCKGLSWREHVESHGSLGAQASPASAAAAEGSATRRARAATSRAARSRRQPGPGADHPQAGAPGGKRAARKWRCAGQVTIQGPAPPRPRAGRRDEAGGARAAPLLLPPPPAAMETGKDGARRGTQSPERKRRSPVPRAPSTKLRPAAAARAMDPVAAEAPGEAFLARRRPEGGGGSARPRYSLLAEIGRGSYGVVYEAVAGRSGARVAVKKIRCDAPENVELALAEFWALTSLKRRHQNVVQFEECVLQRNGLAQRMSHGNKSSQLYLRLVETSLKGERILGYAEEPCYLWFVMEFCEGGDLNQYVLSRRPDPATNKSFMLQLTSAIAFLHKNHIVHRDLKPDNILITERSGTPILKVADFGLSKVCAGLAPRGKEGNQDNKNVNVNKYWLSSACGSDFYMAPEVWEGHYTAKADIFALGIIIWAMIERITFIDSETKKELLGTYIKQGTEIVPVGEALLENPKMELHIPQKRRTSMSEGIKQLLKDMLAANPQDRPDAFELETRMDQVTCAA
Sequence of UniProt Q15208 (Q15208 whole entry, looked up): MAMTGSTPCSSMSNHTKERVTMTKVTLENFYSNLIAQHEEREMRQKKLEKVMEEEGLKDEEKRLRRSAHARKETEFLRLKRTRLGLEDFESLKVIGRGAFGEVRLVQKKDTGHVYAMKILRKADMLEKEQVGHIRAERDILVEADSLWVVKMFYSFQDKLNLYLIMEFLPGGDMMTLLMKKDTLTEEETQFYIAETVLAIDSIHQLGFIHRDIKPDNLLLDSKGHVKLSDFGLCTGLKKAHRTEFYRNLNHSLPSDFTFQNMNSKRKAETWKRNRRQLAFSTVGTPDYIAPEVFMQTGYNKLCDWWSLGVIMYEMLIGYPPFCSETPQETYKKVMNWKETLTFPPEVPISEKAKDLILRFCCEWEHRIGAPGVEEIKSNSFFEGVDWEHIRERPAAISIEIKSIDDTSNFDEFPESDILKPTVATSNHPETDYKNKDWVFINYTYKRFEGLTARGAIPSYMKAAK
Sequence of UniProt Q14004 (Q14004 whole entry, looked up): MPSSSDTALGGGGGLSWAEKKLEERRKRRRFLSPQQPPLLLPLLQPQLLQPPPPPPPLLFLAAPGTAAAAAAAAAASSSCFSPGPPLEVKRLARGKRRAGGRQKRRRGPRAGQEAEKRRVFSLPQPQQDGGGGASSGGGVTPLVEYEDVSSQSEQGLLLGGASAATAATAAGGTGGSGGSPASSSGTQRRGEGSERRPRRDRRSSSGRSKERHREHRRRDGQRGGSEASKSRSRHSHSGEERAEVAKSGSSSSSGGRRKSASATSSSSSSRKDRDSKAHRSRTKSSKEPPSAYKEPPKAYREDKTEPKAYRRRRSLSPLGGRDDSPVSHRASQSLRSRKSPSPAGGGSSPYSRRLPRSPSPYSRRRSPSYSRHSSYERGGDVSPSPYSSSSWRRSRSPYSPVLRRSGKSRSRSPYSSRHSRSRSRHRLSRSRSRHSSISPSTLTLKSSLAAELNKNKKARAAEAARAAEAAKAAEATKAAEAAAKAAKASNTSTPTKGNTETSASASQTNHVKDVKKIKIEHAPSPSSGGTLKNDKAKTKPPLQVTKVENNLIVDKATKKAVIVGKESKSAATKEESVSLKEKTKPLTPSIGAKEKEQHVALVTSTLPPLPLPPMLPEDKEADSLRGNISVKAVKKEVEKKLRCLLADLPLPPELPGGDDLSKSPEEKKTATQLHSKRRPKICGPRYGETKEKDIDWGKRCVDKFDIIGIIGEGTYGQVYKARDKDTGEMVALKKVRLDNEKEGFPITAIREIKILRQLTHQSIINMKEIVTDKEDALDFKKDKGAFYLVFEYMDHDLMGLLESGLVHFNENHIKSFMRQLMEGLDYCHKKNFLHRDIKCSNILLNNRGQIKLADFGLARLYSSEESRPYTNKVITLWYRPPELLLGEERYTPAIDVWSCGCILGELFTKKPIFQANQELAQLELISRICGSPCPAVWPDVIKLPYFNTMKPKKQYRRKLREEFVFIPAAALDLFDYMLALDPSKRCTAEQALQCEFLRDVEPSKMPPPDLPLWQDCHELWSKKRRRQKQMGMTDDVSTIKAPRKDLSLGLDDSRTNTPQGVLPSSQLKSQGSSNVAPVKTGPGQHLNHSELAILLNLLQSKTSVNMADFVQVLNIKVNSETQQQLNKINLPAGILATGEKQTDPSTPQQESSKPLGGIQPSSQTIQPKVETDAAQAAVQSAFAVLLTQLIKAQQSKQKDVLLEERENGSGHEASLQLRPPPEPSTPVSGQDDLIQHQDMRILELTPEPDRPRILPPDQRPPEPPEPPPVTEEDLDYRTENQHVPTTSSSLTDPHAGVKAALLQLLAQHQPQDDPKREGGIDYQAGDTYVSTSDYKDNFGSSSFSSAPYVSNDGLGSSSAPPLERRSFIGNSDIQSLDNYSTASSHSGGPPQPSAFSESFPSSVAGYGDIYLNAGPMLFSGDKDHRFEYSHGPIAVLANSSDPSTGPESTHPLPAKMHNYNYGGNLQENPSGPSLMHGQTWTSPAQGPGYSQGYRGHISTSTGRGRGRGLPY

- pIC50 [1]: < 4.52
- pIC50 [2]: 7.42 ± 0.28
- pIC50 [3]: < 4.52
- pIC50 [4]: < 4.52
- pIC50 [5]: < 4.52
- pIC50 [6]: < 4.52
- pIC50 [7]: < 4.52
- pIC50 [8]: < 4.52
Structure (SMILES): CCc1cnn2c(NCc3ccc[n+]([O-])c3)cc(N3CCCC[C@H]3CCO)nc12 [dinaciclib]
